From patent US9814801B2, “Thiol-ene polymerization with vinylesters and vinylcarbonate” (Depuy Synthes Products, Inc., priority 2011, dated 2017)

Columns and labels:
fibroblast cell culture = assay: Monomer cytotoxicity, Alamar Blue Assay in fibroblast cell culture; conditions: monomer concentration at which resorufin production was reduced to 50% of control, n=3
Description: This assay incorporated a fluorometric/colormetric growth indicator based on detection of metabolic activity.

[1] = Photoreactivity by photo-DSC: time to reach the maximum of the polymerization heat; assay type: physicochemical
Experimental: The compositions which are embodiments of the present invention were compared to acrylate and methacrylate based polymer systems as comparative examples.
The reactivity towards photopolymerization was tested with the help of photo-DSC (differential scanning calorimetry). The measurements were carried out using 2 wt % of 2-hydroxy-1-[4-(2-hydroxyethoxy)phenyl]-2-methyl-1-propanone (Irgacure 2959, Ciba SC) as photoinitiator.

[2] = test system: osteoblastic MC3T3-E1 cells; assay: in vitro; conditions: read-out: LC50; MC3T3-E1 cells cultured five days with monomer; n=3
Experimental: (§1) The effects of each of vinyl ester 4V, acrylate 4A, and meth-acrylate 4M on osteoblastic MC3T3-E1 cells in vitro was tested by the MTT assay method. The osteoblastic MC3T3-E1 cells were cultured for five days in the presence of each of vinyl ester (4V), acrylate (4A), and meth-acrylate (4M).
(§2) Cytotoxicity of the newly synthesized monomers and the reference substances together with the thiols and photoinitiator used was examined in osteoblast cell culture by using an Alamar Blue Assay. This assay incorporates a fluorometric/colormetric growth indicator based on the detection of metabolic activity. 1M solutions of the monomers, thiols, and photoinitiator in DMSO (HYBRI-MAX®, Sigma) were prepared. […] For experiments, cells [osteoblasts taken of the strain C57BL/6 of mus musculus (ATCC Catalog No. CRL-2593, MC3T3-E1, Subclone 4)] were cultured in 100 μl DMEM Medium supplemented with 10% FCS, 100 U/ml Penicillin, and 100 μg/ml Streptomycin, in 96-well plates at a density of 6.4×10^3 cells well^−1 for 24 hours in humidified air (95% relative humidity) with 5% CO2 at 37° C. The next day, the cells were treated with 100 μL of the different concentrations of the monomers for 5 days in triplicates. 10 μL of resazurin were added and the cells incubated for 4 hours at 37° C. The fluorescence intensity was measured for excitation at 530 nm and emission at 580 nm and compared to untreated cells (cells+medium). As control groups cells treated with 1% DMSO-solution, a blank value, and PBS-puffer were used.

in vitro = assay: in vitro
Experimental: as §1, §2

[3] = Butanediol monomer series, 0% TMP700
[4] = Butanediol monomer series, 0% TT
[5] = Butanediol monomer series, 10% TMP700
[6] = Butanediol monomer series, 10% TT
[7] = Butanediol monomer series, 20% TMP700
[8] = Butanediol monomer series, 20% TT
[9] = Butanediol monomer series, 40% TMP700
[10] = Butanediol monomer series, 40% TT
[11] = PEG200 monomer series, 0% TMP700
[12] = PEG200 monomer series, 10% TMP700
[13] = PEG200 monomer series, 20% TMP700
[14] = PEG200 monomer series, 40% TMP700
[15] = PEG600 monomer series, 0% TMP700
[16] = PEG600 monomer series, 10% TMP700
[17] = PEG600 monomer series, 20% TMP700
[18] = PEG600 monomer series, 40% TMP700

Compound	IC50 [mM] (TC50 values of various monomers) (fibroblast cell culture)	time to reach the maximum of the polymerization heat [1, 3] [s]	time to reach the maximum of the polymerization heat [1, 4] [s]	time to reach the maximum of the polymerization heat [1, 5] [s]	time to reach the maximum of the polymerization heat [1, 6] [s]	time to reach the maximum of the polymerization heat [1, 7] [s]	time to reach the maximum of the polymerization heat [1, 8] [s]	time to reach the maximum of the polymerization heat [1, 9] [s]	time to reach the maximum of the polymerization heat [1, 10] [s]	further results
C=COC(=O)CCCCC(=O)OC=C [AVE, adipic acid divinyl ester]	10	4.9	4.9	8.4	7.7	2.9	5.8	2.1	2.1	–
C=CC(=O)OCCCCOC(=O)C=C [Butanediol Acrylate, 1,4-Butanediol-di-acrylate]	–	2.7	2.7	2.9	2.5	3.5	2.8	3.5	2.7	CC50 [2]: < 160 µM
C=C(C)C(=O)OCCCCOC(=O)C(=C)C [Butanediol Methacrylate, 1,4-Butanediol di-methacrylat]	–	28.6	28.6	90.2	87.6	85.4	83.8	75.0	55.0	CC50 (in vitro): 1300 µM
C=COC(=O)OCCCCOC(=O)OC=C [Butanediol Vinyl carbonate, 1,4-butanediol divinyl carbonate]	–	3.3	3.3	6.1	7.1	4.4	3.0	2.1	2.4	–
O=C(CCS)OCC(COC(=O)CCS)(COC(=O)CCS)COC(=O)CCS [PTM, pentaerythritol tetra(3-mercaptopropionate)]	10	–	–	–	–	–	–	–	–	CC50 at 5 days (in vitro; C57BL/6, mouse, osteoblastic MC3T3-E1 cells (Subclone 4, ATCC CRL-2593)): > 10000 µM
C=CC(=O)OCCOCCOCCOCCOC(=O)C=C [TTEGDAc, Tetra(ethylene glycol) diacrylate]	<0.16	–	–	–	–	–	–	–	–	time to reach the maximum of the polymerization heat [1, 11]: 2.6 s; time to reach the maximum of the polymerization heat ([1]; PEG200 monomer series, 0% TT): 2.6 s; time to reach the maximum of the polymerization heat [1, 12]: 3.6 s; time to reach the maximum of the polymerization heat ([1]; PEG200 monomer series, 10% TT): 3.5 s; time to reach the maximum of the polymerization heat [1, 13]: 3.6 s; time to reach the maximum of the polymerization heat ([1]; PEG200 monomer series, 20% TT): 3.3 s; time to reach the maximum of the polymerization heat [1, 14]: 3.4 s; time to reach the maximum of the polymerization heat ([1]; PEG200 monomer series, 40% TT): 3.3 s
C=C(C)C(=O)OCCOCCOCCOCCOC(=O)C(=C)C [TTEGDMA, Tetra(ethylene glycol) dimethacrylate]	<0.16	–	–	–	–	–	–	–	–	time to reach the maximum of the polymerization heat [1, 11]: 12.6 s; time to reach the maximum of the polymerization heat ([1]; PEG200 monomer series, 0% TT): 12.6 s; time to reach the maximum of the polymerization heat [1, 12]: 56.0 s; time to reach the maximum of the polymerization heat ([1]; PEG200 monomer series, 10% TT): 51.5 s; time to reach the maximum of the polymerization heat [1, 13]: 55.1 s; time to reach the maximum of the polymerization heat ([1]; PEG200 monomer series, 20% TT): 58.3 s; time to reach the maximum of the polymerization heat [1, 14]: 46.9 s; time to reach the maximum of the polymerization heat ([1]; PEG200 monomer series, 40% TT): 54.0 s
C=COC(=O)COCCOCCOCC(=O)OC=C [TUVE, ω,ω′-3,6,9-trioxaundecanedioic acid divinyl ester]	2.5	–	–	–	–	–	–	–	–	–
Poly(ethylene glycol) diacrylate, MG 600 [PEG600 Acrylate]	–	–	–	–	–	–	–	–	–	time to reach the maximum of the polymerization heat [1, 15]: 3.2 s; time to reach the maximum of the polymerization heat ([1]; PEG600 monomer series, 0% TT): 3.2 s; time to reach the maximum of the polymerization heat [1, 16]: 3.8 s; time to reach the maximum of the polymerization heat ([1]; PEG600 monomer series, 10% TT): 3.2 s; time to reach the maximum of the polymerization heat [1, 17]: 3.7 s; time to reach the maximum of the polymerization heat ([1]; PEG600 monomer series, 20% TT): 3.0 s; time to reach the maximum of the polymerization heat [1, 18]: 3.2 s; time to reach the maximum of the polymerization heat ([1]; PEG600 monomer series, 40% TT): 3.0 s
Poly(ethylene glycol) dimethacrylate, MG 600 [PEG600 Methacrylate]	–	–	–	–	–	–	–	–	–	time to reach the maximum of the polymerization heat [1, 15]: 10.5 s; time to reach the maximum of the polymerization heat ([1]; PEG600 monomer series, 0% TT): 10.5 s; time to reach the maximum of the polymerization heat [1, 16]: 27.0 s; time to reach the maximum of the polymerization heat ([1]; PEG600 monomer series, 10% TT): 26.3 s; time to reach the maximum of the polymerization heat [1, 17]: 31.2 s; time to reach the maximum of the polymerization heat ([1]; PEG600 monomer series, 20% TT): 31.2 s; time to reach the maximum of the polymerization heat [1, 18]: 30.6 s; time to reach the maximum of the polymerization heat ([1]; PEG600 monomer series, 40% TT): 24.9 s
